Measurements published in ChEMBL document CHEMBL5113463, “Discovery and preclinical evaluations of JBD0131, a novel nitrodihydro-imidazooxazole anti-tuberculosis agent” (Bioorg Med Chem Lett, 2022).
pIC50: −log10 of the molar value. In brackets after ≈: the same amount, converted by molar mass.

Columns and labels:
[1] = tested on: Mycobacterium tuberculosis; assay: Antimycobacterial activity against clinical isolate drug susceptible Mycobacterium tuberculosis H37Rv assessed as bacterial growth inhibition; assay type: functional
[2] = tested on: Mycobacterium tuberculosis; assay: Antimycobacterial activity against Mycobacterium tuberculosis H37Rv assessed as bacterial growth inhibition incubated for 7 days by MABA assay; assay type: functional; conditions: 168 h, time 7 day
[3] = Cytotoxicity against African green monkey vero cells assessed as reduction in cell viability; assay type: toxicity, cell-based; conditions: chlorocebus sabaeus
[4] = Clearance in CD-1 mouse at 0.6 mg/kg, iv; assay type: ADME, organism-based; conditions: in vivo
[5] = Volume of distribution in CD-1 mouse at 0.6 mg/kg, iv; assay type: ADME, organism-based; conditions: in vivo
[6] = Half life in CD-1 mouse at 0.6 mg/kg, iv; assay type: ADME, organism-based; conditions: in vivo
[7] = Cmax in CD-1 mouse at 5 mg/kg, po; assay type: ADME, organism-based; design: dose 5 mg/kg, route po; conditions: in vivo
[8] = AUC (0-last) in CD-1 mouse at 5 mg/kg, po; assay type: ADME, organism-based; design: dose 5 mg/kg, route po; conditions: CD-1, mouse, in vivo
[9] = Oral bioavailability in CD-1 mouse at 5 mg/kg; assay type: ADME, organism-based; conditions: CD-1, mouse, in vivo
[10] = biological target: Voltage-gated inwardly rectifying potassium channel KCNH2 (Homo sapiens, UniProt Q12809); assay: Inhibition of human ERG; assay type: toxicity
Chain of Voltage-gated inwardly rectifying potassium channel KCNH2 (Q12809 whole entry): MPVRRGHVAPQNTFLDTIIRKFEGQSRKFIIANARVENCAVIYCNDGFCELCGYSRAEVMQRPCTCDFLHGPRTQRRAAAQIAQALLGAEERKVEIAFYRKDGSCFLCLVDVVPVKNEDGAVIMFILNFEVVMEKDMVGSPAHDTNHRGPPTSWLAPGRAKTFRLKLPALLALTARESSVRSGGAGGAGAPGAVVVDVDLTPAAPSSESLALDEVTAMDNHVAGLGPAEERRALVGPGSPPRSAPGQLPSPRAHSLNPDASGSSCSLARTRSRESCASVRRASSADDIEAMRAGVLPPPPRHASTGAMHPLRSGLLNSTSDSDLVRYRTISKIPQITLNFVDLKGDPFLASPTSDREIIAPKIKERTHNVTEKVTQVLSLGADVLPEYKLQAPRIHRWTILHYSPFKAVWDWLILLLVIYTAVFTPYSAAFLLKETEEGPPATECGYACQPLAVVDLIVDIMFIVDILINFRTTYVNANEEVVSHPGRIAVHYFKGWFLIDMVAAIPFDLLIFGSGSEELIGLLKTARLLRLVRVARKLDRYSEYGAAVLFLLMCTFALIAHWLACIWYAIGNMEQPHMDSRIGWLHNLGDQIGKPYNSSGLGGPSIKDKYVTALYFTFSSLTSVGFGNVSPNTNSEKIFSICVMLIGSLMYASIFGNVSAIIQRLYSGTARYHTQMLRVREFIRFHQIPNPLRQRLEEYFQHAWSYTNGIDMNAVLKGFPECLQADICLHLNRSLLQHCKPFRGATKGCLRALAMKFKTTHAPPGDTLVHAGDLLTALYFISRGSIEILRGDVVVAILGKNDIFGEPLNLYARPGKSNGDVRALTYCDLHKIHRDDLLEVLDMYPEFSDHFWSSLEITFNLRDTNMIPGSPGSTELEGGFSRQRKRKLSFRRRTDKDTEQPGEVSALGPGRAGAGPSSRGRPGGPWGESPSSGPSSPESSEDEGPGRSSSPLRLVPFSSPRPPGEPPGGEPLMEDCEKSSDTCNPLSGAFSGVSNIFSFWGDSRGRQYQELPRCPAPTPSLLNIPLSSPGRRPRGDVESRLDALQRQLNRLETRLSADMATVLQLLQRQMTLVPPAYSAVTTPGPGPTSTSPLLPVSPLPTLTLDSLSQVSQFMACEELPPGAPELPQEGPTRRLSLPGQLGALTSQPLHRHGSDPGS

[11] = Metabolic stability in human assessed as half life; assay type: ADME
[12] = Metabolic stability in human liver microsomes assessed as half life; assay type: ADME, Microsome
[13] = Metabolic stability in rat liver microsomes assessed as half life; assay type: ADME, Microsome
[14] = Metabolic stability in mouse liver microsomes assessed as half life; assay type: ADME, Microsome
[15] = tested on: Mycobacterium tuberculosis; assay: Antimycobacterial activity against Mycobacterium tuberculosis H37Rv assessed as bacterial growth inhibition incubated for 10 days under hypoxic condition followed by 28 hrs incubation under normoxic condition by Low-Oxygen-Recovery Assay; assay type: functional; conditions: 264 h, time 11 day
[16] = Apparent permeability across apical to basolateral side in dog MDCK cells; assay type: ADME, cell-based, Canis lupus familiaris
[17] = Plasma protein binding in mouse assessed as bound fraction; assay type: ADME, cell-free; conditions: read-out: PPB (converted)
[18] = Plasma protein binding in rat assessed as bound fraction; assay type: ADME, cell-free; conditions: read-out: PPB (converted)
[19] = Plasma protein binding in dog assessed as bound fraction; assay type: ADME, cell-free, Canis lupus familiaris; conditions: read-out: PPB (converted)
[20] = Plasma protein binding in human assessed as bound fraction; assay type: ADME, cell-free; conditions: read-out: PPB (converted)
Cytochrome P450 1A2 = biological target: T1, Cytochrome P450 1A2 (Homo sapiens, UniProt P05177); assay: Inhibition of CYP1A2 (unknown origin); assay type: ADME
T1 sequence (P05177 whole entry): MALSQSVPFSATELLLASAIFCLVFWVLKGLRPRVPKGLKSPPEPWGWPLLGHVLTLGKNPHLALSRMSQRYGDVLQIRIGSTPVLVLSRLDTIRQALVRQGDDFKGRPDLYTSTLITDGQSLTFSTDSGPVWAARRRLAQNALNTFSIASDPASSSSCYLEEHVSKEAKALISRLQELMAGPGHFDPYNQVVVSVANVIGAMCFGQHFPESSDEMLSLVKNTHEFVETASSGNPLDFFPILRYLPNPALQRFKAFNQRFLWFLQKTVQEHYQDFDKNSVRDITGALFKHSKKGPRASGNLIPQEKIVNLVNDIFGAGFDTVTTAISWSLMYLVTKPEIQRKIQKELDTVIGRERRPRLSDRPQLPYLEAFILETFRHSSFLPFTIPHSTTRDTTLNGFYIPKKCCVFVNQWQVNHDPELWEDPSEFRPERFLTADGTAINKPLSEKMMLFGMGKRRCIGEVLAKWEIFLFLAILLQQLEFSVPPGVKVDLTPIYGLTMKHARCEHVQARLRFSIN

Cytochrome P450 2B6 = biological target: T2, Cytochrome P450 2B6 (Homo sapiens, UniProt P20813); assay: Inhibition of CYP2B6 (unknown origin); assay type: ADME
T2 sequence (P20813 whole entry): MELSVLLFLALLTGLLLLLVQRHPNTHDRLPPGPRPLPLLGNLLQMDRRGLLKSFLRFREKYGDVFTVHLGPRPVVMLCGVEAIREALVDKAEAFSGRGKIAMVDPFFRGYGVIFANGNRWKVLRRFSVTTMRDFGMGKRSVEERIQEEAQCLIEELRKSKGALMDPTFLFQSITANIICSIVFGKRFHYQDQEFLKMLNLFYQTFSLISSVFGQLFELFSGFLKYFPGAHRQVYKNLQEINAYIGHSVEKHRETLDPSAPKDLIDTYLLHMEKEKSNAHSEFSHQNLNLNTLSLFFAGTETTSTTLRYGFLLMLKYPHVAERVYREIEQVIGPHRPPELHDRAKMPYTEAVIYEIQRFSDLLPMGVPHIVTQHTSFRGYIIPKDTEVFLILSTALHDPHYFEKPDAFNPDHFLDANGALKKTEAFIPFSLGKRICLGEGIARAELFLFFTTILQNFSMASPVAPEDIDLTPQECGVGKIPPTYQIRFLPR

Cytochrome P450 2C8 = biological target: T3, Cytochrome P450 2C8 (Homo sapiens, UniProt P10632); assay: Inhibition of CYP2C8 (unknown origin); assay type: ADME
T3 sequence (P10632 whole entry): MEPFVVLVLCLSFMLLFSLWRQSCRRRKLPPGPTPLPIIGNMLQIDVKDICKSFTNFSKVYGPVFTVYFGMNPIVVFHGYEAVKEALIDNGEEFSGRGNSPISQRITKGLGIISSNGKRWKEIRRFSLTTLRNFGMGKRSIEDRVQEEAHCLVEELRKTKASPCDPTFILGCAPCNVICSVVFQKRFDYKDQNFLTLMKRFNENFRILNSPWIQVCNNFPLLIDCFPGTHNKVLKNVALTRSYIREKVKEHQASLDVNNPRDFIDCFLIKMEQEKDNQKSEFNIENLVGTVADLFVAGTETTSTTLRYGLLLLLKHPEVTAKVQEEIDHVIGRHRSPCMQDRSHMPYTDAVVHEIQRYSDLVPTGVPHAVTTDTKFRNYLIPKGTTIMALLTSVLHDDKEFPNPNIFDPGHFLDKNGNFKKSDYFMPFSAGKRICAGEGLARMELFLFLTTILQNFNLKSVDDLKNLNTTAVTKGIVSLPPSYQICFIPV

Cytochrome P450 2C9 = Cytochrome P450 2C9 (Homo sapiens, UniProt P11712); assay: Inhibition of CYP2C9 (unknown origin); assay type: ADME
Chain of Cytochrome P450 2C9 (P11712 whole entry): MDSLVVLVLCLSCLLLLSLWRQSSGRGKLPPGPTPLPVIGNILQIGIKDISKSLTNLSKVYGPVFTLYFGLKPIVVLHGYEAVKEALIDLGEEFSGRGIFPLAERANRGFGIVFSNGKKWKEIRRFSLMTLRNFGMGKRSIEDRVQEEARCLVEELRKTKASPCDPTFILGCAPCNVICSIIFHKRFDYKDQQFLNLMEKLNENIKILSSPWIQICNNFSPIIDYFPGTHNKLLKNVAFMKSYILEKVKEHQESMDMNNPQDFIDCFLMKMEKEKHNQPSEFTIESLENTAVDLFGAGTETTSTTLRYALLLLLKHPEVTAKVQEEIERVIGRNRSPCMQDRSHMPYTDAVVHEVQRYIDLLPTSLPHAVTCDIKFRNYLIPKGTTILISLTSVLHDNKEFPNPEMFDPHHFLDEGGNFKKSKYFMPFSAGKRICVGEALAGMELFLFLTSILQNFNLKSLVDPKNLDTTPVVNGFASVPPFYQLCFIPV

Cytochrome P450 2C19 = Cytochrome P450 2C19 (Homo sapiens, UniProt P33261); assay: Inhibition of CYP2C19 (unknown origin); assay type: ADME
Chain of Cytochrome P450 2C19 (P33261 whole entry): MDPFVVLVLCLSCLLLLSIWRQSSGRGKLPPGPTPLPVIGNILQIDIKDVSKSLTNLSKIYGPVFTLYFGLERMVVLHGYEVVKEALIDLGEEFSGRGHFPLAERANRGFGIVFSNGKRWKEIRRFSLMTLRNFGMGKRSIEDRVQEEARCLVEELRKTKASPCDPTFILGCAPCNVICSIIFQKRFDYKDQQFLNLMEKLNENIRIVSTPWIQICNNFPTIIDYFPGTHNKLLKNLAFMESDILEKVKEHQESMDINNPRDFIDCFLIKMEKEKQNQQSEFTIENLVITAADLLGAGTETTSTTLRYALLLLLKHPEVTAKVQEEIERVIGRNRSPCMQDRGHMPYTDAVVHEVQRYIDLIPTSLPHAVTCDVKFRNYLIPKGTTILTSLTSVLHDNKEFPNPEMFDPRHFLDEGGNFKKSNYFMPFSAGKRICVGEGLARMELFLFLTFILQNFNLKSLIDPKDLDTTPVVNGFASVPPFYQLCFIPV

Cytochrome P450 2D6 = Cytochrome P450 2D6 (Homo sapiens, UniProt P10635); assay: Inhibition of CYP2D6 (unknown origin); assay type: ADME
Chain of Cytochrome P450 2D6 (P10635 whole entry): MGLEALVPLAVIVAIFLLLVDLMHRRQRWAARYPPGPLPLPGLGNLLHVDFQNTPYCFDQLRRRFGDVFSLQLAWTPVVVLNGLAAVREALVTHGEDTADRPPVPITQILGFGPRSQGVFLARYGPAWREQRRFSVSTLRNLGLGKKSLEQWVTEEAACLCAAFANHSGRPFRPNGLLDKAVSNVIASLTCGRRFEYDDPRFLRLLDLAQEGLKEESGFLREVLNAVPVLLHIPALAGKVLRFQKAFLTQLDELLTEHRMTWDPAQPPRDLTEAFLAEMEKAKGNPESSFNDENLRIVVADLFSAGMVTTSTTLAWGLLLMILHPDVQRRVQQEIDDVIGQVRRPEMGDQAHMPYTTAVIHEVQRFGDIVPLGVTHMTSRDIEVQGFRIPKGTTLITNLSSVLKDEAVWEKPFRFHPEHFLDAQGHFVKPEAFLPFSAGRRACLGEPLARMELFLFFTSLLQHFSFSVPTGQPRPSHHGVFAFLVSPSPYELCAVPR

Cytochrome P450 3A4 = Cytochrome P450 3A4 (Homo sapiens, UniProt P08684); assay: Inhibition of CYP3A4 (unknown origin); assay type: ADME
Chain of Cytochrome P450 3A4 (P08684 whole entry): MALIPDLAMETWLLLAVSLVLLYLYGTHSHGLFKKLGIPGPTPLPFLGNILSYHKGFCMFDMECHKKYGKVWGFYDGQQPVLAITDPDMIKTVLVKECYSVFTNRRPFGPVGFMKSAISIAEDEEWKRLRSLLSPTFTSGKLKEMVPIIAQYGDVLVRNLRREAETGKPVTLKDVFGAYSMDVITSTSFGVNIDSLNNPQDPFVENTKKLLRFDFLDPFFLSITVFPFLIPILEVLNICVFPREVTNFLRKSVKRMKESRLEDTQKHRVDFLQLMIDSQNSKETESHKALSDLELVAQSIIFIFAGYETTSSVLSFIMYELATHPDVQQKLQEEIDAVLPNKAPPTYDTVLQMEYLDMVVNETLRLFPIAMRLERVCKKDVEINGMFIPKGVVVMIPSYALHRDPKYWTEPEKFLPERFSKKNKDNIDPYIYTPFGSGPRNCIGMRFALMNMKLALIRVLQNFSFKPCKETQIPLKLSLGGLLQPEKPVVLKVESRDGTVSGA

[21] = tested on: Mycobacterium tuberculosis; assay: Antimycobacterial activity against Mycobacterium tuberculosis Erdman assessed as bacterial growth inhibition; assay type: functional
[22] = tested on: Mycobacterium tuberculosis; assay: In vivo antimycobacterial activity against Mycobacterium tuberculosis Erdman infected mouse acute tuberculosis infection model assessed as reduction lung bacterial loads by measuring CFU at 10 to 100 mg/kg for 3 weeks at 5 days/week; assay type: functional, organism-based; conditions: dose 10-100 mg/kg, DDE = dose-dependent effect
[23] = tested on: Mycobacterium tuberculosis; assay: In vivo antimycobacterial activity against Mycobacterium tuberculosis Erdman infected mouse chronic tuberculosis infection model assessed as reduction log10 CFU at 10 to 100 mg/kg for 4 weeks at 5 days/week administered after 31 days post infection relative to control; assay type: functional; conditions: dose 10-100 mg/kg

Structure (SMILES) | MIC50 [1] | MIC90 [1] | MIC [2] | CC50 [3] | clearance [4] | Vd [5] | half-life [6] | Cmax [7] | AUC(0-t) [8] | bioavailability [9] | pIC50 [10] | half-life [12] | half-life [13] | half-life [14] | further results
NC[C@H]1O[C@H](O[C@H]2[C@H](O)[C@@H](O[C@H]3O[C@H](CO)[C@@H](O)[C@H](N)[C@H]3O)[C@H](N)C[C@@H]2N)[C@H](O)[C@@H](O)[C@@H]1O [KANAMYCIN] | 1.22 µg/mL (≈ 2.52 µM) | 1.91 µg/mL (≈ 3.94 µM) | – | – | – | – | – | – | – | – | – | – | – | – | –
C[C@]1(CN2Cc3nc(-c4ncc(F)cc4F)sc3C2)Cn2cc([N+](=O)[O-])nc2O1 | – | – | 0.06 µg/mL (≈ 0.143 µM) | > 32 µg/mL | 13.8 mL/min/kg | 1.57 L/kg | 1.4 h | 1010 ng/mL | 4990 ng·h/mL | 57.9% | – | – | – | – | –
C[C@]1(COc2ccc(N3CCC(Oc4ccc(OC(F)(F)F)cc4)CC3)cc2)CN=C(N)O1 [DM-6705] | – | – | – | – | – | – | – | – | – | – | 7.09 | – | – | – | half-life [11]: 122 h
C[C@]1(CN2Cc3nc(-c4ccc(F)cn4)sc3C2)Cn2cc([N+](=O)[O-])nc2O1 | – | – | 0.03 µg/mL (≈ 0.0746 µM) | > 32 µg/mL | 12.7 mL/min/kg | 2.02 L/kg | 1.71 h | 385 ng/mL | 2920 ng·h/mL | 24.5% | – | – | – | – | –
C[C@]1(CN2Cc3nc(-c4ccc(F)cc4)oc3C2)Cn2cc([N+](=O)[O-])nc2O1 | – | – | 0.021 µg/mL (≈ 0.0545 µM) | > 32 µg/mL | – | – | – | – | – | – | – | 0.983 h | 0.65 h | 0.717 h | –
C[C@]1(COc2ccc(N3CCC(Oc4ccc(OC(F)(F)F)cc4)CC3)cc2)Cn2cc([N+](=O)[O-])nc2O1 | 0.002 µg/mL (≈ 0.00374 µM) | 0.004 µg/mL (≈ 0.00748 µM) | 0.006 µg/mL (≈ 0.0112 µM) | > 32 µg/mL | – | – | – | – | – | – | < 4.52 | 1.4 h | > 2.42 h | > 2.42 h | MIC [15]: 0.61 µg/mL (≈ 1.14 µM); Papp A→B [16]: 0.09 ×10⁻⁶ cm/s; fraction unbound [17]: 0.005; fraction unbound [18]: 0.004; fraction unbound [19]: 0.005; fraction unbound [20]: 0.005; pIC50 (Cytochrome P450 1A2): < 4.00; pIC50 (Cytochrome P450 2B6): < 4.00; pIC50 (Cytochrome P450 2C8): < 4.00; pIC50 (Cytochrome P450 2C9): < 4.00; pIC50 (Cytochrome P450 2C19): < 4.00; pIC50 (Cytochrome P450 2D6): < 4.00; pIC50 (Cytochrome P450 3A4): < 4.00; MIC [21]: 0.015 µg/mL (≈ 0.0281 µM); Activity [22]: Dde; Activity [23]: 1 log10CFU
